In patent US12479847B2 (DANA-FARBER CANCER INSTITUTE, INC., priority 2019, dated 2025):

How the values were obtained:
Assay in all cases: KINOMEscan (ScanMAX) kinase profiling
Type in all cases: binding
panel of 468 kinases [1] = target: T1, panel of 468 kinases (Homo sapiens, UniProt P42338); conditions: PIK3CB; 1 μM; read-out: % control
T1 construct: purchased KINOMEscan (ScanMAX) service

panel of 468 kinases [2] = target: T2, panel of 468 kinases (Homo sapiens, UniProt Q13470); conditions: TNK1; 1 μM; read-out: % control
T2 construct: purchased KINOMEscan (ScanMAX) service
T2 sequence (Q13470 1-666): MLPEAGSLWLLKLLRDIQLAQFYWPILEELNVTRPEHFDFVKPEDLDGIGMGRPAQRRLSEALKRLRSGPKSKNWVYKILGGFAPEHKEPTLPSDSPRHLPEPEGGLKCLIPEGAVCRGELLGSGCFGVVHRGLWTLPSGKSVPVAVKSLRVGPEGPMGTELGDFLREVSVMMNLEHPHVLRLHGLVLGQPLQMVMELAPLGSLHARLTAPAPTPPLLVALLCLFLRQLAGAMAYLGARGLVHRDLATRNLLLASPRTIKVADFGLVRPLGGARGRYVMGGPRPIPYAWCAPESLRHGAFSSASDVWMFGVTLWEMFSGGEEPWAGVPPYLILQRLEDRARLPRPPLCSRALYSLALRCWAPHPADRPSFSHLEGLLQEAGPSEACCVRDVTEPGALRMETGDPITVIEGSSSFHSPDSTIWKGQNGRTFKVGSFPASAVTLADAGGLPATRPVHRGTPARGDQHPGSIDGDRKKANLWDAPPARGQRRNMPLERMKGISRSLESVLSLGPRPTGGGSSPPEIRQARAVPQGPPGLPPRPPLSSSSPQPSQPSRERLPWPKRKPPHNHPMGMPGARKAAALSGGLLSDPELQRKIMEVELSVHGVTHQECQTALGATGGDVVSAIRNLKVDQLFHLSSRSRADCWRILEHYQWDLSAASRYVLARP

panel of 468 kinases [3] = target: T3, panel of 468 kinases (Homo sapiens, UniProt Q86YV6); conditions: MYLK4; 1 μM; read-out: % control
T3 construct: purchased KINOMEscan (ScanMAX) service
T3 sequence (Q86YV6 1-388): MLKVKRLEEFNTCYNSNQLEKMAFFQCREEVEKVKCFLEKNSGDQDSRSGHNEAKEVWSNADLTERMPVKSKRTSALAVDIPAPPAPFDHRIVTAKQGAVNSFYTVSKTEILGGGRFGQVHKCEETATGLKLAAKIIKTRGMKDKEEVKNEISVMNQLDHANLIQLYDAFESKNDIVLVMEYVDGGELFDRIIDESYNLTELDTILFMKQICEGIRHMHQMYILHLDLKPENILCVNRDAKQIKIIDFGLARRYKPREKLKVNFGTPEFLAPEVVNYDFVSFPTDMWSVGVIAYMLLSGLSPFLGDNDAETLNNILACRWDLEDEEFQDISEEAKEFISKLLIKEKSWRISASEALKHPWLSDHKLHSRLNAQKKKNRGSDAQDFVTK

panel of 468 kinases [4] = target: T4, panel of 468 kinases (Homo sapiens, UniProt Q9BRS2); conditions: RIOK1; 1 μM; read-out: % control
T4 construct: purchased KINOMEscan (ScanMAX) service
T4 sequence (Q9BRS2 1-568): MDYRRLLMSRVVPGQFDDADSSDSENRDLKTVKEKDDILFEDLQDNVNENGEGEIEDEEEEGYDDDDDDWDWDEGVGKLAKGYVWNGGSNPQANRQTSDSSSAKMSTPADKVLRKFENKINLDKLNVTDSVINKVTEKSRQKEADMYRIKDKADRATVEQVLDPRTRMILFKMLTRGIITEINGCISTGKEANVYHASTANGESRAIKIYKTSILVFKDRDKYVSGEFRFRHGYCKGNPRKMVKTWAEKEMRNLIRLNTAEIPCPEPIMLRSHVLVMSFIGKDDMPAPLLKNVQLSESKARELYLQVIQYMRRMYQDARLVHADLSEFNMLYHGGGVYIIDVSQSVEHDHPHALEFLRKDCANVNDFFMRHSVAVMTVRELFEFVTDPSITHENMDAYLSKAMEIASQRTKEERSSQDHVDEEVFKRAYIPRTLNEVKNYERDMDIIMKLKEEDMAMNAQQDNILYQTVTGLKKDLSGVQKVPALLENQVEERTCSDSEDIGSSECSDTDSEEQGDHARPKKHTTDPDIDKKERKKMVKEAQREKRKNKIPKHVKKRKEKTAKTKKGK

panel of 468 kinases [5] = target: T5, panel of 468 kinases (Homo sapiens, UniProt Q9BVS4); conditions: RIOK2; 1 μM; read-out: % control
T5 construct: purchased KINOMEscan (ScanMAX) service

panel of 468 kinases [6] = target: T6, panel of 468 kinases (Homo sapiens, UniProt Q9Y3S1); conditions: WNK2; 1 μM; read-out: % control
T6 construct: purchased KINOMEscan (ScanMAX) service
T6 sequence (Q9Y3S1 whole entry): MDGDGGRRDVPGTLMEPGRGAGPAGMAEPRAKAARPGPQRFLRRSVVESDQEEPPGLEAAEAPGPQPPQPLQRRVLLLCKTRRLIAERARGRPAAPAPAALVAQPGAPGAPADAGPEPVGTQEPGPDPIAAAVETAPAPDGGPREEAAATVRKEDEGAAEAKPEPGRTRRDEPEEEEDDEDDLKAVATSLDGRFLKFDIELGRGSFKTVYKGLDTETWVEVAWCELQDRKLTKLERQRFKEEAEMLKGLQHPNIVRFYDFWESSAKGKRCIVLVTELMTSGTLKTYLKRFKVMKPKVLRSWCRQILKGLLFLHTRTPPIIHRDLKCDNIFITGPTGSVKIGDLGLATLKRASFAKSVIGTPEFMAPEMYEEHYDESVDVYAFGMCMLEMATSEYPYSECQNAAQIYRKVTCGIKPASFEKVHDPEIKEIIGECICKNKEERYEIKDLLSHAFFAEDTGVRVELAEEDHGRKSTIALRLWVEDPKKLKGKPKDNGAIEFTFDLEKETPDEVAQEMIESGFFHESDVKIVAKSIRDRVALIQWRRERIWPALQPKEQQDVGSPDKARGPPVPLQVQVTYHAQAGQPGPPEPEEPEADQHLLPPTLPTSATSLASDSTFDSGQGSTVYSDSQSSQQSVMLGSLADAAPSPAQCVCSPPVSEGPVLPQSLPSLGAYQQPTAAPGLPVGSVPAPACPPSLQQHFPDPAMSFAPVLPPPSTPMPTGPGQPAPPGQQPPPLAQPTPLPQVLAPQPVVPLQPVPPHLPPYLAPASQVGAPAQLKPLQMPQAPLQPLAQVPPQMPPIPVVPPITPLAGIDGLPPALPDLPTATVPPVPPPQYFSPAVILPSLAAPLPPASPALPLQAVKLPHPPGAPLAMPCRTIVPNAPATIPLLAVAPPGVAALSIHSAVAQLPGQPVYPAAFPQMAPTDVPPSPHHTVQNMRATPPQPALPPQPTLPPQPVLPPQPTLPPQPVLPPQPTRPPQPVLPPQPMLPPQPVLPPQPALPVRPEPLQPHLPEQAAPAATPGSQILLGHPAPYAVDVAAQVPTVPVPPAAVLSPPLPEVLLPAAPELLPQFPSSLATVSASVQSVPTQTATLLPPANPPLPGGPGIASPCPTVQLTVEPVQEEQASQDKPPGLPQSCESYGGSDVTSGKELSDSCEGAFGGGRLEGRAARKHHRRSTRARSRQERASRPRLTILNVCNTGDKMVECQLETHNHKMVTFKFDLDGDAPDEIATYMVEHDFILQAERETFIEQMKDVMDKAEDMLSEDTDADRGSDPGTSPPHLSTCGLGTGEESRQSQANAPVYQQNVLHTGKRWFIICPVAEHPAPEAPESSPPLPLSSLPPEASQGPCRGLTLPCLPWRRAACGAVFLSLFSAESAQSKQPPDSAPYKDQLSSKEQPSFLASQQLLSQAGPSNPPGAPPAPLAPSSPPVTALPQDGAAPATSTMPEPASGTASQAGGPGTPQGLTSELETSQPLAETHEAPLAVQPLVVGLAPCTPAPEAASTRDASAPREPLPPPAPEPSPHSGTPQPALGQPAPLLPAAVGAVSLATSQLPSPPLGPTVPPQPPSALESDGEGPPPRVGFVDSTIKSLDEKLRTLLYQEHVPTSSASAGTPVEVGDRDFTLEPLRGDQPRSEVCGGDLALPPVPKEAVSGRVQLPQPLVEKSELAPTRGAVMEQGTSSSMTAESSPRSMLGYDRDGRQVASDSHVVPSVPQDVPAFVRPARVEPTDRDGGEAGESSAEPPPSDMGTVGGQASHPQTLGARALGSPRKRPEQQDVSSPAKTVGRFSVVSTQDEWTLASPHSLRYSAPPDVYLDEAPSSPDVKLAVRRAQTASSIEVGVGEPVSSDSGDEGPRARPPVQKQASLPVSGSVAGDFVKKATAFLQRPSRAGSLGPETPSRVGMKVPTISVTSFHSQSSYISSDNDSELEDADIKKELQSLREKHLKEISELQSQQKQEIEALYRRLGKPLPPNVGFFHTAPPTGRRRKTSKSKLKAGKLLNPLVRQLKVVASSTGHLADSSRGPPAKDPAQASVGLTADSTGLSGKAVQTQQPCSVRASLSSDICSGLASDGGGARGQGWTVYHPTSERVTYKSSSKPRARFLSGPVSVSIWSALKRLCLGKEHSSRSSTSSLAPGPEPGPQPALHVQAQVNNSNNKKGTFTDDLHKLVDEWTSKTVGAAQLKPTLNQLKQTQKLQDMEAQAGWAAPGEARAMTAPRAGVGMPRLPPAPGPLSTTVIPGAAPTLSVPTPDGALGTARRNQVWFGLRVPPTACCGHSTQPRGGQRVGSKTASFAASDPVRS

T1 sequence (P42338 whole entry): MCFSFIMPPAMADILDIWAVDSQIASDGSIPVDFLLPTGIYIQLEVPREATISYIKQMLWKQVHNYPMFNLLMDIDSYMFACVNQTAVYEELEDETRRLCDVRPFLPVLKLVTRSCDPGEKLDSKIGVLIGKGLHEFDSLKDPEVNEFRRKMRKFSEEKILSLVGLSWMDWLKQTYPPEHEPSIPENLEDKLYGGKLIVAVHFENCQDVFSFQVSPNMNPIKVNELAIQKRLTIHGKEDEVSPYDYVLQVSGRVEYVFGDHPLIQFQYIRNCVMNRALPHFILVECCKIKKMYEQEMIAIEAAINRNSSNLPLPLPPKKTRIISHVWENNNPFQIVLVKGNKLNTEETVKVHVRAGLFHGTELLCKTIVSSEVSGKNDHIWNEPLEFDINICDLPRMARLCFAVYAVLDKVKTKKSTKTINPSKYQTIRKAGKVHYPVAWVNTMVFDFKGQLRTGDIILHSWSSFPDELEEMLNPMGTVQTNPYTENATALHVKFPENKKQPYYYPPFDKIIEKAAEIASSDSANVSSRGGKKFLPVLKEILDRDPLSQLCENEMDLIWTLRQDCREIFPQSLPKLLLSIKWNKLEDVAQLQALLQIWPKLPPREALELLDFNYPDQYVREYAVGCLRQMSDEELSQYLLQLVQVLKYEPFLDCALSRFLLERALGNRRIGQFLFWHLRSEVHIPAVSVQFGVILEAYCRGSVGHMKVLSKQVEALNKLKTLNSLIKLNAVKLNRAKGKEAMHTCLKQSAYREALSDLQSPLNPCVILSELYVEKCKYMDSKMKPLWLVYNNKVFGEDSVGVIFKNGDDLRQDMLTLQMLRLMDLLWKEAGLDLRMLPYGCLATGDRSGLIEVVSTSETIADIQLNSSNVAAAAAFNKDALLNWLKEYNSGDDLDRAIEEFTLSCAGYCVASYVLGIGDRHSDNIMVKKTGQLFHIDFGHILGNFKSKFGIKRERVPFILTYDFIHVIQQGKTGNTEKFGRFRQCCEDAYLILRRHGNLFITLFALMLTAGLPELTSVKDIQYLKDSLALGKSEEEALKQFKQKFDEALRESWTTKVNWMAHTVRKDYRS
T5 sequence (Q9BVS4 whole entry): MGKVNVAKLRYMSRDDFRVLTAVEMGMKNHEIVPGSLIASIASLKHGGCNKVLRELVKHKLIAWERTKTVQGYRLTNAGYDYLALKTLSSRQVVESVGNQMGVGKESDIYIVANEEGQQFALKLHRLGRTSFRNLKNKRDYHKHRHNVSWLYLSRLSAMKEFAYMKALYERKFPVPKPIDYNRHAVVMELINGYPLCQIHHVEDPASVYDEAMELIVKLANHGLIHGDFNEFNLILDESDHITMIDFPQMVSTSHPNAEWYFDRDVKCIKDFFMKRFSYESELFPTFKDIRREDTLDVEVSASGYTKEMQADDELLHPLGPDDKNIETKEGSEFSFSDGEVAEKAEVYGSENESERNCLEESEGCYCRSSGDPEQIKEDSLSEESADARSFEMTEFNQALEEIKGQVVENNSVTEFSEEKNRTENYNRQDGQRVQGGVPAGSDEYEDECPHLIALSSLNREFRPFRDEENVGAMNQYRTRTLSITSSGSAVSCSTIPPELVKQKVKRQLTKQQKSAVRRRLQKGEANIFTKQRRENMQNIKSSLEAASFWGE

SMILES | remaining binding at 1 µM (panel of 468 kinases [1]) [%] | remaining binding at 1 µM (panel of 468 kinases [2]) [%] | remaining binding at 1 µM (panel of 468 kinases [3]) [%] | remaining binding at 1 µM (panel of 468 kinases [4]) [%] | remaining binding at 1 µM (panel of 468 kinases [5]) [%] | remaining binding at 1 µM (panel of 468 kinases [6]) [%]
CNc1nc(Nc2ccc(S(=O)(=O)N3CCC(N4CCOCC4)CC3)cc2OC)nc2[nH]cc(Cl)c12 [Compound 12, 5-chloro-N2-(2-methoxy-4-((4-morpholinopiperidin-1-yl)sulfonyl)phenyl)-N4-methyl-7H-pyrrolo[2,3-d]pyrimidine-2,4-diamine] | 80 | 100 | 100 | 100 | 94 | 62
CNc1nc(Nc2ccc(C(=O)N3CCC(N4CCOCC4)CC3)c3c2OCO3)nc2[nH]cc(Cl)c12 [Compound 75, (7-((5-chloro-4-(methylamino)-7H-pyrrolo[2,3-d]pyrimidin-2-yl)amino)benzo[d][1,3]dioxol-4-yl)(4-morpholinopiperidin-1-yl)methanone] | 89 | 100 | 100 | 48 | 53 | 69
CNc1nc(Nc2ccc(P3(=O)CCN(C4CCOCC4)CC3)cc2OC)nc2[nH]cc(Cl)c12 [Compound 77, 4-(4-((5-chloro-4-(methylamino)-7H-pyrrolo[2,3-d]pyrimidin-2-yl)amino)-3-methoxyphenyl)-1-(tetrahydro-2H-pyran-4-yl)-1,4-azaphosphinane 4-oxide] | 71 | 96 | 64 | 98 | 78 | 71
